pIC50: −log10 of the molar value.
Biological target: ROMK (Kir1.1) channel (Homo sapiens (Human), UniProt P48048)
Test: Thallium Flux Assay
Format: cell-based
Procedure: A Thallium Flux Assay was performed on each of the final product compounds of the Examples. This assay has been described previously; see, e.g., PCT Published Application WO 2013/062900.

Sequence of ROMK (Kir1.1) channel (P48048 whole entry): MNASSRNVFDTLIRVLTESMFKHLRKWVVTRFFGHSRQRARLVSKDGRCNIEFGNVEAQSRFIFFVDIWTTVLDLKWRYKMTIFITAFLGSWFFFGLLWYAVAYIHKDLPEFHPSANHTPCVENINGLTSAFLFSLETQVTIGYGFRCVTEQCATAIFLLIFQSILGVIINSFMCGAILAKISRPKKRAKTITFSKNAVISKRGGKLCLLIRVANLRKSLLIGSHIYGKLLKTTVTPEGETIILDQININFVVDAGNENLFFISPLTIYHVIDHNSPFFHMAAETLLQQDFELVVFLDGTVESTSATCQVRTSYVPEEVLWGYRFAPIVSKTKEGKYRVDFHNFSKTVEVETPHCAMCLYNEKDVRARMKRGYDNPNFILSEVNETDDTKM

Compound	pIC50
CC1=C(N2CC[C@]3(CC[C@@H](N[C@H](C)c4ccc(-n5cnnn5)nn4)CC3)C2=O)COC1=O [Example 15, (5R,8r)-2-(4-methyl-5-oxo-2,5-dihydrofuran-3-yl)-8-({(1R)-1-[6-(1H-tetrazol-1-yl)pyridazin-3-yl]ethyl}amino)-2-azaspiro[4.5]decan-1-one]	7.04
CC1=C(N2CC[C@]3(CC[C@H](N[C@H](C)c4ccc5c(c4)CCc4nnnn4-5)CC3)C2=O)COC1=O [Example 17, (5S,8s)-8-{[(1R)-1-(4,5-dihydrotetrazolo[1,5-a]quinolin-7-yl)ethyl]amino}-2-(4-methyl-5-oxo-2,5-dihydrofuran-3-yl)-2-azaspiro[4.5]decan-1-one]	6.47
CC1=C(N2CC[C@]3(CC[C@@H](N[C@H](C)c4ccc5c(c4)CCc4nnnn4-5)CC3)C2=O)COC1=O [Example 18, (5R,8r)-8-{[(1R)-1-(4,5-dihydrotetrazolo[1,5-a]quinolin-7-yl)ethyl]amino}-2-(4-methyl-5-oxo-2,5-dihydrofuran-3-yl)-2-azaspiro[4.5]decan-1-one]	6.48
CC1=C(N2CC[C@]3(CC[C@@H](N[C@@H](C)c4ccc5c(c4)CCc4nnnn4-5)CC3)C2=O)COC1=O [Example 21, (5S,8r)-8-{[(1S)-1-(4,5-dihydrotetrazolo[1,5-a]quinolin-7-yl)ethyl]amino}-2-(4-methyl-5-oxo-2,5-dihydrofuran-3-yl)-2-azaspiro[4.5]decan-1-one]	7.36
C[C@@H]1C[C@]2(CC[C@@H](NCc3ccc(-n4cnnn4)nc3)CC2)C(=O)N1C1=CC(=O)OC1 [Example 23, (3R,5r,8R)-3-methyl-2-(5-oxo-2,5-dihydrofuran-3-yl)-8-({[6-(1H-tetrazol-1-yl)pyridin-3-yl]methyl}amino)-2-azaspiro[4.5]decan-1-one]	6.14
C[C@@H]1C[C@]2(CC[C@H](NCc3cnc(-n4cnnn4)cn3)CC2)C(=O)N1C1=CC(=O)OC1 [Example 26, (3R,5s,8S)-3-methyl-2-(5-oxo-2,5-dihydrofuran-3-yl)-8-({[5-(1H-tetrazol-1-yl)pyrazin-2-yl]methyl}amino)-2-azaspiro[4.5]decan-1-one]	6.72
C[C@@H]1C[C@]2(CC[C@H](NCc3ccc(-n4cnnn4)nc3)CC2)C(=O)N1C1=CC(=O)OC1 [Example 27, (3R,5s,8S)-3-methyl-2-(5-oxo-2,5-dihydrofuran-3-yl)-8-({[6-(1H-tetrazol-1-yl)pyridin-3-yl]methyl}amino)-2-azaspiro[4.5]decan-1-one]	7.42
C[C@H]1C[C@]2(CC[C@H](NCc3cnc(-n4cnnn4)cn3)CC2)C(=O)N1C1=CC(=O)OC1 [Example 28, (3S,5s,8R)-3-methyl-2-(5-oxo-2,5-dihydrofuran-3-yl)-8-({[5-(1H-tetrazol-1-yl)pyrazin-2-yl]methyl}amino)-2-azaspiro[4.5]decan-1-one]	6.60
CC1=C(N2CC[C@]3(CC[C@@H](N[C@@H](C)c4ccc(-n5cnnn5)cn4)CC3)C2=O)COC1=O [Example 29, (5S,8r)-2-(4-methyl-5-oxo-2,5-dihydrofuran-3-yl)-8-({(1S)-1-[5-(1H-tetrazol-1-yl)pyridin-2-yl]ethyl}amino)-2-azaspiro[4.5]decan-1-one]	7.70
CC1=C(N2CC[C@]3(CC[C@H](NCc4ccc(-n5ncnn5)cc4)CC3)C2=O)COC1=O [Example 40, (5s,8s)-2-(4-methyl-5-oxo-2,5-dihydrofuran-3-yl)-8-{[4-(2H-tetrazol-2-yl)benzyl]amino}-2-azaspiro[4.5]decan-1-one]	6.96
CC1=C(N2CC[C@]3(CC[C@](C)(NCc4ccc(-n5cnnn5)nn4)CC3)C2=O)COC1=O [Example 42, (5s,8s)-8-methyl-2-(4-methyl-5-oxo-2,5-dihydrofuran-3-yl)-8-({[6-(1H-tetrazol-1-yl)pyridazin-3-yl]methyl}amino)-2-azaspiro[4.5]decan-1-one]	7.15
CC1=C(N2CC[C@]3(CC[C@@H](NCc4ccc(-n5cnnn5)cc4)CC3)C2=O)COC1=O [Example 44, (5r,8r)-2-(4-methyl-5-oxo-2,5-dihydrofuran-3-yl)-8-{[4-(1H-tetrazol-1-yl)benzyl]amino}-2-azaspiro[4.5]decan-1-one]	8.51
CC1=C(N2CC[C@]3(CC[C@@H](NCc4ccc5c(c4)-c4nnnn4C5)CC3)C2=O)COC1=O [Example 47, (5r,8r)-2-(4-methyl-5-oxo-2,5-dihydrofuran-3-yl)-8-[(5H-tetrazolo[5,1-a]isoindol-8-ylmethyl)amino]-2-azaspiro[4.5]decan-1-one]	6.26
CC1=C(N2CC[C@]3(CC[C@@](C)(NCc4ccc(-n5cnnn5)nn4)CC3)C2=O)COC1=O [Example 48, (5r,8r)-8-methyl-2-(4-methyl-5-oxo-2,5-dihydrofuran-3-yl)-8-({[6-(1H-tetrazol-1-yl)pyridazin-3-yl]methyl}amino)-2-azaspiro[4.5]decan-1-one]	8.11

The remaining molecules from weak to strong by pIC50, led by results:

pIC50	Compound
6.59	CC1=C(N2CC[C@]3(CC[C@@H](N[C@@H](C)c4ccc5c(c4)Cn4nnnc4-5)CC3)C2=O)COC1=O [Example 31, (5S,8r)-2-(4-methyl-5-oxo-2,5-dihydrofuran-3-yl)-8-{[(1S)-1-(5H-tetrazolo[5,1-a]isoindol-7-yl)ethyl]amino}-2-azaspiro[4.5]decan-1-one]
6.82	CC1=C(N2CC[C@]3(CC[C@@H](N[C@H](C)c4ccc5c(c4)Cn4nnnc4-5)CC3)C2=O)COC1=O [Example 30, (5R,8r)-2-(4-methyl-5-oxo-2,5-dihydrofuran-3-yl)-8-{[(1R)-1-(5H-tetrazolo[5,1-a]isoindol-7-yl)ethyl]amino}-2-azaspiro[4.5]decan-1-one]
6.89	C[C@H]1C[C@]2(CC[C@H](NCc3ccc(-n4cnnn4)nc3)CC2)C(=O)N1C1=CC(=O)OC1 [Example 22, (3S,5s,8R)-3-methyl-2-(5-oxo-2,5-dihydrofuran-3-yl)-8-({[6-(1H-tetrazol-1-yl)pyridin-3-yl]methyl}amino)-2-azaspiro[4.5]decan-1-one]
6.92	CC1=C(N2CC[C@]3(CC[C@@H](N[C@H](C)c4cnc(-n5cnnn5)cn4)CC3)C2=O)COC1=O [Example 24, (5R,8r)-2-(4-methyl-5-oxo-2,5-dihydrofuran-3-yl)-8-({(1R)-1-[5-(1H-tetrazol-1-yl)pyrazin-2-yl]ethyl}amino)-2-azaspiro[4.5]decan-1-one]
6.96	CC1=C(N2CC[C@]3(CC[C@@H](N[C@H](C)c4ccc(-n5cnnn5)cn4)CC3)C2=O)COC1=O [Example 32]
7.31	CC1=C(N2CC[C@]3(CC[C@H](NCc4ccc(-n5cnnn5)cc4)CC3)C2=O)COC1=O [Example 43, (5s,8s)-2-(4-methyl-5-oxo-2,5-dihydrofuran-3-yl)-8-{[4-(1H-tetrazol-1-yl)benzyl]amino}-2-azaspiro[4.5]decan-1-one]
7.52	CC1=C(N2CC[C@]3(CC[C@@H](NCc4ncc(-n5cnnn5)nc4C)CC3)C2=O)COC1=O [Example 14, (5r,8r)-2-(4-methyl-5-oxo-2,5-dihydrofuran-3-yl)-8-({[3-methyl-5-(1H-tetrazol-1-yl)pyrazin-2-yl]methyl}amino)-2-azaspiro[4.5]decan-1-one]
8.48	CC1=C(N2CC[C@]3(CC[C@@H](NCc4ccc(-n5ncnn5)cc4)CC3)C2=O)COC1=O [Example 41, (5r,8r)-2-(4-methyl-5-oxo-2,5-dihydrofuran-3-yl)-8-{[4-(2H-tetrazol-2-yl)benzyl]amino}-2-azaspiro[4.5]decan-1-one]

Source: patent US9718808B2, “Inhibitors of the renal outer medullary potassium channel” (Merck Sharp & Dohme Corp., priority 2014, dated 2017)
